Laboratory results from US20230159532A1, “PARATHYROID HORMONE (PTH) RECEPTOR ANTAGONISTS AND USES THEREOF” (Crinetics Pharmaceuticals, Inc., priority 2021, published 2023).

target: T1, human PTHR1 receptor (Homo sapiens, UniProt Q03431); assay: Competitive antagonist binding assay for hPTH-R1 (radioactive competition binding, SPA beads); details: human PTHR1 membranes, [125I]-[Nle8,18,Tyr34]-PTH(1-34) 0.2 nM, 90 minutes at room temperature; read-out: hPTHR1 Ki
T1 construct: purchased Eurofins HTS030M
T1 sequence (Q03431 27-593): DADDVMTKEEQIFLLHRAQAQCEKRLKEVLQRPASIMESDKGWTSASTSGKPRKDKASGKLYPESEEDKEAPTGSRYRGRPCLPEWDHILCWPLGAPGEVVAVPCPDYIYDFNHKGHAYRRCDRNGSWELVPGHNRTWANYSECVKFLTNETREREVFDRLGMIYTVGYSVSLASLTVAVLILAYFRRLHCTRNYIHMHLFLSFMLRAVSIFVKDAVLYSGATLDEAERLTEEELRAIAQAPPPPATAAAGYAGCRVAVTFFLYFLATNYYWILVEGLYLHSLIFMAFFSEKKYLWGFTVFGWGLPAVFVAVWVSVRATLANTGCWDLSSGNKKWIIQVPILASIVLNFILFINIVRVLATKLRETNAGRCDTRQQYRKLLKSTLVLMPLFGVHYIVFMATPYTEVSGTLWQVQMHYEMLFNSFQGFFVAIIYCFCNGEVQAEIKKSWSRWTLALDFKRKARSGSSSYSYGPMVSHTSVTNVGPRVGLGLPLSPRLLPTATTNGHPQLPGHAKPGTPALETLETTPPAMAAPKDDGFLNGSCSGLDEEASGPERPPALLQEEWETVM
How it was run: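 Displacement of 0.2 nM radioiodinated [Nle8,18,Tyr34]-PTH(1-34) from membrane-bound human PTHR1 measured by scintillation proximity after 90 min at room temperature. Compounds typically 0-10,000 nM final, pH 7.4 HEPES/Mg/Ca buffer with BSA and detergent. Ki calculated from competition data.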

Compound	Ki [nM]
CCN1C(=O)N(c2c(F)cc(NCCN3CCOCC3)cc2F)c2cc(C#N)ccc2-c2cc(Cl)cnc21 [1-148, 4-chloro-10-(2,6-difluoro-4-{[2-(morpholin-4-yl)ethyl]amino}phenyl)-8-ethyl-9-oxo-6,8,10-triazatricyclo[9.4.0.0^2,7]pentadeca-1(11),2(7),3,5,12,14-hexaene-13-carbonitrile]	100 to 1000
CCN1C(=O)N(c2c(F)cc(NCCNCCO)cc2F)c2cc(Cl)ccc2-c2c1ncc(Cl)c2C [3-4, 4,13-dichloro-10-[2,6-difluoro-4-({2-[(2-hydroxyethyl)amino]ethyl}amino)phenyl]-8-ethyl-3-methyl-6,8,10-triazatricyclo[9.4.0.0^2,7]pentadeca-1(11),2(7),3,5,12,14-hexaen-9-one]	< 100
CCN1C(=O)N(c2c(F)cc(NCCN[C@H]3C[C@H](O)C3)cc2F)c2cc(C#N)ccc2-c2cc(F)cnc21 [1-222, 10-{2,6-difluoro-4-[(2-{[(1r,3r)-3-hydroxycyclobutyl]amino}ethyl)amino]phenyl}-8-ethyl-4-fluoro-9-oxo-6,8,10-triazatricyclo[9.4.0.0^2,7]pentadeca-1(11),2(7),3,5,12,14-hexaene-13-carbonitrile]	< 100
CCCN1C(=O)N(c2c(F)cc(NCCNCCO)cc2F)c2cc(C#N)cc(F)c2-c2cc(F)cnc21 [1-125, 10-[2,6-difluoro-4-({2-[(2-hydroxyethyl)amino]ethyl}amino)phenyl]-4,15-difluoro-9-oxo-8-propyl-6,8,10-triazatricyclo[9.4.0.0^2,7]pentadeca-1(11),2(7),3,5,12,14-hexaene-13-carbonitrile]	< 100
CCN1C(=O)N(c2c(F)cc(NCCNCCS(=O)(=O)O)cc2F)c2cc(C#N)ccc2-c2cc(Cl)cnc21 [1-141, 2-({2-[(4-{4-chloro-13-cyano-8-ethyl-9-oxo-6,8,10-triazatricyclo[9.4.0.0^2,7]pentadeca-1(11),2(7),3,5,12,14-hexaen-10-yl}-3,5-difluorophenyl)amino]ethyl}amino)ethane-1-sulfonic acid]	< 100
CCN1C(=O)N(c2c(F)cc(NCCN)cc2F)c2cc(Cl)ccc2-c2cc(Cl)cnc21 [1-9, 10-{4-[(2-aminoethyl)amino]-2,6-difluorophenyl}-4,13-dichloro-8-ethyl-6,8,10-triazatricyclo[9.4.0.0^2,7]pentadeca-1(11),2(7),3,5,12,14-hexaen-9-one]	< 100
CCN1C(=O)N(c2c(F)cc(NCCN(C)CCO)cc2F)c2cc(Cl)ccc2-c2cc(Cl)cnc21 [1-73, 4,13-dichloro-10-[2,6-difluoro-4-({2-[(2-hydroxyethyl)(methyl)amino]ethyl}amino)phenyl]-8-ethyl-6,8,10-triazatricyclo[9.4.0.0^2,7]pentadeca-1(11),2(7),3,5,12,14-hexaen-9-one]	< 100
CCN1C(=O)N(c2c(F)cc(NCCN[C@H](C)CO)cc2F)c2cc(C#N)ccc2-c2cc(F)cnc21 [1-214, 10-{2,6-difluoro-4-[(2-{[(2R)-1-hydroxypropan-2-yl]amino}ethyl)amino]phenyl}-8-ethyl-4-fluoro-9-oxo-6,8,10-triazatricyclo[9.4.0.0^2,7]pentadeca-1(11),2(7),3,5,12,14-hexaene-13-carbonitrile]	< 100
CN1C(=O)N(c2c(F)cc(NCCNC3CCOCC3)cc2F)c2cc(Cl)ccc2-c2cc(Cl)cnc21 [1-35, 4,13-dichloro-10-[2,6-difluoro-4-({2-[(oxan-4-yl)amino]ethyl}amino)phenyl]-8-methyl-6,8,10-triazatricyclo[9.4.0.0^2,7]pentadeca-1(11),2(7),3,5,12,14-hexaen-9-one]	< 100

Continued, values first:

Ki [nM]	Compound
< 100	CCN1C(=O)N(c2c(F)cc(NCCNCCO)cc2F)c2cc(Cl)cc(F)c2-c2cc(Cl)cnc21 [1-60, 4,13-dichloro-10-[2,6-difluoro-4-({2-[(2-hydroxyethyl)amino]ethyl}amino)phenyl]-8-ethyl-15-fluoro-6,8,10-triazatricyclo[9.4.0.0^2,7]pentadeca-1(11),2(7),3,5,12,14-hexaen-9-one]
< 100	CCN1C(=O)N(c2c(F)cc(NCCNCCN)cc2F)c2cc(C#N)ccc2-c2cc(Cl)cnc21 [1-131, 10-[4-({2-[(2-aminoethyl)amino]ethyl}amino)-2,6-difluorophenyl]-4-chloro-8-ethyl-9-oxo-6,8,10-triazatricyclo[9.4.0.0^2,7]pentadeca-1(11),2(7),3,5,12,14-hexaene-13-carbonitrile]
< 100	CNCCNc1cc(F)c(N2C(=O)N(C(C)C)c3ncc(F)cc3-c3c(F)cc(C#N)cc32)c(F)c1 [1-107, 10-(2,6-difluoro-4-{[2-(methylamino)ethyl]amino}phenyl)-4,15-difluoro-9-oxo-8-(propan-2-yl)-6,8,10-triazatricyclo[9.4.0.0^2,7]pentadeca-1(11),2(7),3,5,12,14-hexaene-13-carbonitrile]
< 100	CCN1C(=O)N(c2c(F)cc(NCCN[C@H](C)C(=O)O)cc2F)c2cc(C#N)ccc2-c2cc(Cl)cnc21 [1-236, (2R)-2-({2-[(4-{4-chloro-13-cyano-8-ethyl-9-oxo-6,8,10-triazatricyclo[9.4.0.0^2,7]pentadeca-1(11),2(7),3,5,12,14-hexaen-10-yl}-3,5-difluorophenyl)amino]ethyl}amino)propanoic acid]
< 100	CCN1C(=O)N(c2c(F)cc(NCCNCCOCCC(=O)O)cc2F)c2cc(C#N)ccc2-c2cc(Cl)cnc21 [1-229, 3-[2-({2-[(4-{4-chloro-13-cyano-8-ethyl-9-oxo-6,8,10-triazatricyclo[9.4.0.0^2,7]pentadeca-1(11),2(7),3,5,12,14-hexaen-10-yl}-3,5-difluorophenyl)amino]ethyl}amino)ethoxy]propanoic acid]
< 100	CCN1C(=O)N(c2c(F)cc(NCCNCCC(=O)O)cc2F)c2cc(Cl)ccc2-c2cc(Cl)cnc21 [1-72, 3-({2-[(4-{4,13-dichloro-8-ethyl-9-oxo-6,8,10-triazatricyclo[9.4.0.0^2,7]pentadeca-1(11),2(7),3,5,12,14-hexaen-10-yl}-3,5-difluorophenyl)amino]ethyl}amino)propanoic acid]
< 100	CCN1C(=O)N(c2c(F)cc(NCCNC[C@@H]3CCC(=O)N3)cc2F)c2cc(C#N)ccc2-c2cc(Cl)cnc21 [1-174, 4-chloro-10-(2,6-difluoro-4-{[2-({[(2S)-5-oxopyrrolidin-2-yl]methyl}amino)ethyl]amino}phenyl)-8-ethyl-9-oxo-6,8,10-triazatricyclo[9.4.0.0^2,7]pentadeca-1(11),2(7),3,5,12,14-hexaene-13-carbonitrile]
< 100	CN1C(=O)N(c2c(F)cc(NCCN)cc2F)c2cc(Cl)ccc2-c2cc(Cl)cnc21 [1-33, 10-{4-[(2-aminoethyl)amino]-2,6-difluorophenyl}-4,13-dichloro-8-methyl-6,8,10-triazatricyclo[9.4.0.0^2,7]pentadeca-1(11),2(7),3,5,12,14-hexaen-9-one]
< 100	CCN1C(=O)N(c2c(F)cc(NCCNCCNC(=O)NC)cc2F)c2cc(C#N)ccc2-c2cc(Cl)cnc21 [1-166, 1-[2-({2-[(4-{4-chloro-13-cyano-8-ethyl-9-oxo-6,8,10-triazatricyclo[9.4.0.0^2,7]pentadeca-1(11),2(7),3,5,12,14-hexaen-10-yl}-3,5-difluorophenyl)amino]ethyl}amino)ethyl]-3-methylurea]
< 100	CCN1C(=O)N(c2c(F)cc(NCCNCCN)cc2F)c2cc(C#N)ccc2-c2cc(F)cnc21 [1-237, 10-[4-({2-[(2-aminoethyl)amino]ethyl}amino)-2,6-difluorophenyl]-8-ethyl-4-fluoro-9-oxo-6,8,10-triazatricyclo[9.4.0.0^2,7]pentadeca-1(11),2(7),3,5,12,14-hexaene-13-carbonitrile]
< 100	10-[4-({2-[(3-amino-2-hydroxypropyl)amino]ethyl}amino)-2,6-difluorophenyl]-4-chloro-8-ethyl-9-oxo-6,8,10-triazatricyclo[9.4.0.0^2,7]pentadeca-1(11),2(7),3,5,12,14-hexaene-13-carbonitrile [1-188]
